{"source": "patent US20260176232A1", "about": "“PROBENECID COMPOUNDS FOR THE TREATMENT OF INFLAMMASOME-MEDIATED DERMATOLOGICAL CONDITIONS” (Bacainn Biotherapeutics, Ltd., priority 2022, published 2026)", "key": {"[1]": {"system": "non-canonical inflammasome", "test": "IL-1β secretion in macrophages challenged with LPS (B4) (FIG. 4C)", "format": "cell-based, human", "settings": "BT032 20, 100 μM; Pam3Cys priming; LPS 0111:B4 16 h", "description": "(§1) In vitro stimulation of human macrophages."}, "[2]": {"biological_target": "NLRC4 inflammasome (Mus musculus, UniProt Q3UP24)", "sequence (Q3UP24 whole entry)": "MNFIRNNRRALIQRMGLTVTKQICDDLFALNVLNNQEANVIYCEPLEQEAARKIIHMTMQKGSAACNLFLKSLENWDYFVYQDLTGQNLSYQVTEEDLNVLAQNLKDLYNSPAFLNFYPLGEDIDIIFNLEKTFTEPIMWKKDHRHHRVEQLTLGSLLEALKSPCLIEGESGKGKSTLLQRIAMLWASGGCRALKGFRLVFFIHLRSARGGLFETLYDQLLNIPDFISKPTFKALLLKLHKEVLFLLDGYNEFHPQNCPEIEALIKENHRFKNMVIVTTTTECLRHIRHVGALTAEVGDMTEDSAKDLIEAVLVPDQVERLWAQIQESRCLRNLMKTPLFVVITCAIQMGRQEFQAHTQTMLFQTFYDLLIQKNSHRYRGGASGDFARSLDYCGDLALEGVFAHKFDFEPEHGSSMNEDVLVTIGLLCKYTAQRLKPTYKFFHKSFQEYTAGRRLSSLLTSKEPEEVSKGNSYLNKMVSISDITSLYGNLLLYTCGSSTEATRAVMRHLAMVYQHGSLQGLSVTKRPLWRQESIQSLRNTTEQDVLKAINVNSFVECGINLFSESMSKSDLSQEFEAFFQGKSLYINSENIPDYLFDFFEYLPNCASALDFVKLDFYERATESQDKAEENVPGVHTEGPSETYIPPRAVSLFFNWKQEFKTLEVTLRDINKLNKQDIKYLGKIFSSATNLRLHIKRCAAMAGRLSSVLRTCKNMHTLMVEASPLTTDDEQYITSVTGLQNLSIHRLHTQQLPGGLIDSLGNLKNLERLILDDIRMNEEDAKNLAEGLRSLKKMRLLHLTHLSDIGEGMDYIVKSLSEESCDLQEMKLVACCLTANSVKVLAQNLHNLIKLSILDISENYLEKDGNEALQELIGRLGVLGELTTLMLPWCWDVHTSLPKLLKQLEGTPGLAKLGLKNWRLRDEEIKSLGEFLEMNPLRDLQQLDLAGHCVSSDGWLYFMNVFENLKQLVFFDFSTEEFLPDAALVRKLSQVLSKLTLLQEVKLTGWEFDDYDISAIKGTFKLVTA", "test": "IL-1β secretion in macrophages challenged with Flagellin (FIG. 4C)", "format": "cell-based, human", "settings": "BT032 20, 100 μM; 6 h", "description": "as §1"}, "[3]": {"system": "T1, ASC speck formation (inflammasome complex)", "T1 construct": "Flag; expressed in transfected cells; host or cells: NLRP3-deficient immortalized BMDMs", "T1 sequence (Q96P20 whole entry, one chain of several)": "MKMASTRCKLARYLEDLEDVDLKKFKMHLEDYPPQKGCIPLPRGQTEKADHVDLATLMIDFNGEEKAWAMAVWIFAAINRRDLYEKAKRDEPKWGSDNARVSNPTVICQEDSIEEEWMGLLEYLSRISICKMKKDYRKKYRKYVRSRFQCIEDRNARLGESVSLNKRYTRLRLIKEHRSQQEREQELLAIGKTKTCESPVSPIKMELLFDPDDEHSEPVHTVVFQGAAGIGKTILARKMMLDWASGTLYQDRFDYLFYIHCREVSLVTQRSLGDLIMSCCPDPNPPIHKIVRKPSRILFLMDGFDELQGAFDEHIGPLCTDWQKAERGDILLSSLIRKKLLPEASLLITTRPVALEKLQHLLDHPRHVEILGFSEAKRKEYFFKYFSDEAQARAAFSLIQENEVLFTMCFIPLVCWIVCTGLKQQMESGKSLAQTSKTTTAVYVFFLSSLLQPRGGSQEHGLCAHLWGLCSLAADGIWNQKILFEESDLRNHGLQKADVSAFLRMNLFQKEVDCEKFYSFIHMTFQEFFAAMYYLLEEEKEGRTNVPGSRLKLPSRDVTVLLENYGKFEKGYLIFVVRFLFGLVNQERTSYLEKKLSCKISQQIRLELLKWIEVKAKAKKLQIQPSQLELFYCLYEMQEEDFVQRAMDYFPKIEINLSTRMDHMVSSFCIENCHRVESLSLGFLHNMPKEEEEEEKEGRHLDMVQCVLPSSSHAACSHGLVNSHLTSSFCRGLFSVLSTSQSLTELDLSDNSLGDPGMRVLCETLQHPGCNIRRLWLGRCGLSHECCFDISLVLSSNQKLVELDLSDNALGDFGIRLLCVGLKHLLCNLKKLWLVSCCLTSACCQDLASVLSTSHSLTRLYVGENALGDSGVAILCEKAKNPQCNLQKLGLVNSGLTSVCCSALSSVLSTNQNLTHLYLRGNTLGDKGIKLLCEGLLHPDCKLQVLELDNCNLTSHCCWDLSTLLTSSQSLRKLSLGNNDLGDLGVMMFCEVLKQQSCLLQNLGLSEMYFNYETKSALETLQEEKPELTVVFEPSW", "test": "Nigericin-induced ASC speck formation in ASC-cerulean/NLRP3 macrophages", "format": "cell-based", "settings": "350 μM, 60 mins before nigericin 3 μM 90 mins; about 20% of cells with nigericin alone", "description": "FIGS. 5B-5D are pictures showing the ability of probenecid analogs of the present technology (e.g., BT032) to inhibit the formation of the inflammasome complex following NLRP3 activation. NLRP3-deficient immortalized BMDMs reconstituted with ASC-cerulean (pseudocolor RED) and NLRP3-Flag were either not stimulated (FIG. 5B) or stimulated with NLRP3 agonist nigericin (3 μM) for 90 mins (FIG. 5C). ASC-cerulean macrophages were also pretreated with BT032 (350 μM) for 60 mins prior to nigericin challenge (FIG. 5D). Macrophages were fixed with 4% paraformaldehyde and imaged for the formation of inflammasome specks as identified by intense, punctate staining in the cytosol of cells. Cell nuclei were stained with DAP (4′,6′-diamindino-2-phenylindole; BLUE). Representative images shown are maximum intensity projections of 3D deconvoluted z stacks using ImageJ.\nFIG. 5E is a chart showing the number of ASC specks detected per field (6-7 fields per sample) compared to the total number of cells/field as determined by staining nuclei. Data is represented as a percentage of ASC-specks per field of view for each treatment group as outlined in FIGS. 5B-5D.\nMethods. […] ASC-cerulean specks were counted for each field and as percentage of specks per field and represented as a percentage of total Hoechst positive cells."}, "[4]": {"system": "inflammasome activation by UVB", "test": "Dermal UVB inflammatory challenge in healthy volunteers after intradermal dosing", "format": "in vivo, human", "description": "This is a single-center, inflammatory challenge study in healthy volunteers, to evaluate inflammasome activation by UVB in healthy volunteers. Healthy volunteers will undergo a topical UVB challenge after intradermal dosing with BT032.\nUV-B Challenge+BT032 (n=9; 3 Placebo, 6 Active): • Screening: 1 hour admission • Study day (day −1 to 1): 24 hours admission (baseline assessments, challenge, and 2, 4 hr blister, skin assessments) • Follow-up visit 1 (day 2): 1 hour admission (24 hr blister) • End of study visit (+7 days): 1 hour admission\nInvestigational drug (BT032)+UVB challenge. As part of the screening assessments, the subject's Fitzpatrick skin photo type is determined (type I-VI). The subject is first exposed to 6 different doses of UV-B, to determine the Minimal Erythemic Dose (MED) expressed in J/cm^2, using the six different slots of the UV-B lamp. Twenty-four hours (±2 hours) after the exposure of the 6 doses, the erythemic response of the skin to UV-B is assessed by two observers. The MED is determined visually, by observing which dose produces the first clearly discernible erythema. On the treatment days, the subject's skin is exposed to two minimal erythema doses (2MED) of UVB.\nSubjects Groups. A total of 9 healthy volunteers will be enrolled. These subjects will undergo an UVB challenge after dosing with BT032. […]"}}, "data": [{"smiles": "CCCN(CCC)S(=O)(=O)c1ccc(-c2ccc(CCCC(=O)O)cc2)cc1", "note": "[BT032, 4-(4′-(N,N-dipropylsulfamoyl)-[1,1′-biphenyl]-4-yl)butanoic acid]", "values": [{"measurement": "non-canonical inflammasome activity (LPS (B4))", "setting": "[1]", "result": "limited impact"}, {"measurement": "NLRC4 (Flagellin)-mediated inflammasome activation", "setting": "[2]", "result": "no effect"}, {"measurement": "ASC specks in cells", "setting": "[3]", "result": "substantially reduced ASC specks"}, {"measurement": "levels of inflammasome-driven cytokines and/or inflammasome proteins versus non-treated controls", "setting": "[4]; IL-1β, IL-18, IL-6, TNF, NLRP3, ASC, NLRP1", "result": "reduced levels"}, {"measurement": "activation of inflammasomes versus non-treated controls", "setting": "[4]; intradermal dosing, UVB 2MED", "result": "reduction in the activation of inflammasomes"}]}]}
